One test deals with D(1A) dopamine receptor (Homo sapiens, UniProt P21728). Description: Selectivity interaction (Eurofins CEREP Diversity Profile (receptors and ion channels)) EUB0000279b DRD1. Particulars: at 10 µM.
The target of test [1] is T1, Serine/threonine-protein kinase greatwall (Homo sapiens) (UniProt Q96GX5).
T1 sequence (whole entry): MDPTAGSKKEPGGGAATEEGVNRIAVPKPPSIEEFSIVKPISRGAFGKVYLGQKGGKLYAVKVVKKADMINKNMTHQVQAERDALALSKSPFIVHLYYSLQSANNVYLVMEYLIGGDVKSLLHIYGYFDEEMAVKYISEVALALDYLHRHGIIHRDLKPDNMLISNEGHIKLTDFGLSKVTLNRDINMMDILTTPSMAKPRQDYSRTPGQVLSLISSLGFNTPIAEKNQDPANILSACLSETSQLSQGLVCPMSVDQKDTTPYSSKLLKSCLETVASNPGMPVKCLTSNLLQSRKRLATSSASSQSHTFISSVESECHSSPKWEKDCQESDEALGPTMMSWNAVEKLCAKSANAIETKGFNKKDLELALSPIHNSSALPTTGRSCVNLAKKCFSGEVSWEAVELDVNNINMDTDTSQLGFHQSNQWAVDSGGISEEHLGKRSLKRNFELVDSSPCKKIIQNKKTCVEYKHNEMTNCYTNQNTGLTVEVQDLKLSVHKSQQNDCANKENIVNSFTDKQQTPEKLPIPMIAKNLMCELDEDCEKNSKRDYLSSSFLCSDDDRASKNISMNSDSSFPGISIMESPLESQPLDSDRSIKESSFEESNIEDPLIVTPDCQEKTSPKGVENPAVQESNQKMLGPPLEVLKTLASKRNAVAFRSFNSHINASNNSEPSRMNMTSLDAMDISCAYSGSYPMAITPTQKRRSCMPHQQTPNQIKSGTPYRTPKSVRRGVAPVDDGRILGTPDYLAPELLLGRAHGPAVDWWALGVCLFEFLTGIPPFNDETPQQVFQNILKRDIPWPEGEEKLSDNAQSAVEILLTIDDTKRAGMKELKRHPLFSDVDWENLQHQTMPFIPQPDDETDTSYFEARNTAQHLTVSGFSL
Nature of the test: Selectivity interaction (ActivX KiNativ screen (kinase selectivity in THP-1 cell lysates)) EUB0000639a MASTL. It counts as subcellular. Particulars: lysate.

Test [2] addresses T2, TGF-beta receptor type-1 (Homo sapiens) (UniProt P36897).
T2 sequence (whole entry): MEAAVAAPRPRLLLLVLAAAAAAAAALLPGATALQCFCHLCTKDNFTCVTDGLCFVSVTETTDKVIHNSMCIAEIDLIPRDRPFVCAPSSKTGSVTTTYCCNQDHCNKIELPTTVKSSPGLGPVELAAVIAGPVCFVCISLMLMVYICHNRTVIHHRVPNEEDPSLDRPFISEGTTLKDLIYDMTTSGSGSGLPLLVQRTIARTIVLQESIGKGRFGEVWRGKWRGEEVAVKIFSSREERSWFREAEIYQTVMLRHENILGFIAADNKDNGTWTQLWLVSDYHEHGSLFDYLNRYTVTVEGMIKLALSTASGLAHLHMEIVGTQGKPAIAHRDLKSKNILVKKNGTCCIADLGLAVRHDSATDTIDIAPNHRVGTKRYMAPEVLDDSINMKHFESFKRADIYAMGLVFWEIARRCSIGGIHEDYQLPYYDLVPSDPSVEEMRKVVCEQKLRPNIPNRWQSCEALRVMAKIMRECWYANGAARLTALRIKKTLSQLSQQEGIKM
Description: Selectivity interaction (KinomeScan (DiscoverX)) EUB0000655a TGFBR1. The following applies: at 10 µM.

The target in test [3] is Protein arginine N-methyltransferase 3 (Homo sapiens, UniProt O60678). Nature of the test: Selectivity interaction (Transferase panel (protein, RNA, and DNA methyltransferases. and EP300 (acetyltransferase))) EUB0000270b PRMT3.
For test [4], the target named is T3, Protein arginine N-methyltransferase 9 (Homo sapiens) (UniProt Q6P2P2).
T3 sequence (whole entry): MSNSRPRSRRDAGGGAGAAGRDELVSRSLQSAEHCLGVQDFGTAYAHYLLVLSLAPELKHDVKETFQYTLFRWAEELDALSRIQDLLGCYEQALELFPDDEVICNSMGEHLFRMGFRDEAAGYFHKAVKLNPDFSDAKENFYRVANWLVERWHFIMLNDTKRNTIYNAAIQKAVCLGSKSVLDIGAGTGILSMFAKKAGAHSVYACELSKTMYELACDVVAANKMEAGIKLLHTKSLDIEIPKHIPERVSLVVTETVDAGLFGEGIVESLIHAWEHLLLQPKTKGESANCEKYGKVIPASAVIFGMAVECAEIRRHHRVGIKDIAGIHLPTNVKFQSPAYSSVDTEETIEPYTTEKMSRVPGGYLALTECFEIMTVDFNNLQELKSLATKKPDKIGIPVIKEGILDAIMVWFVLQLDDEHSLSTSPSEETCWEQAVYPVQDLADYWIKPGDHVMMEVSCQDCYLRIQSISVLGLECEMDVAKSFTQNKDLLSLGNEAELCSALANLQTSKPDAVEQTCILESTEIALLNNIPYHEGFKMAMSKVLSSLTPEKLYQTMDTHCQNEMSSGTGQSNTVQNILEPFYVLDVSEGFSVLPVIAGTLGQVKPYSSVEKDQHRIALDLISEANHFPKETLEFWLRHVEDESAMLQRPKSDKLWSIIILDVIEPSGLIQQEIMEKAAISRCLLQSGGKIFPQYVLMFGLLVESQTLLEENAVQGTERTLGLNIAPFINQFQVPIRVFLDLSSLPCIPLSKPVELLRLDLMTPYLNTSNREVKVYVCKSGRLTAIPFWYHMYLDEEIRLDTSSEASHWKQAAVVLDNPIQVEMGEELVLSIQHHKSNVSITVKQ
Description: Selectivity interaction (Methyltransferase screen (radiometric assays, panel of 8 PRMTs, 21 protein lysine methyltransferases, 3 DNA methyltransferases, and one RNA methyltransferase)) EUB0000271b PRMT9.

Consider five compounds from ChEMBL document CHEMBL5465560, “Selectivity Literature for EUbOPEN Chemogenomic Library” (2024).

Sequence of Protein arginine N-methyltransferase 3 (O60678 2-531 limits assumed): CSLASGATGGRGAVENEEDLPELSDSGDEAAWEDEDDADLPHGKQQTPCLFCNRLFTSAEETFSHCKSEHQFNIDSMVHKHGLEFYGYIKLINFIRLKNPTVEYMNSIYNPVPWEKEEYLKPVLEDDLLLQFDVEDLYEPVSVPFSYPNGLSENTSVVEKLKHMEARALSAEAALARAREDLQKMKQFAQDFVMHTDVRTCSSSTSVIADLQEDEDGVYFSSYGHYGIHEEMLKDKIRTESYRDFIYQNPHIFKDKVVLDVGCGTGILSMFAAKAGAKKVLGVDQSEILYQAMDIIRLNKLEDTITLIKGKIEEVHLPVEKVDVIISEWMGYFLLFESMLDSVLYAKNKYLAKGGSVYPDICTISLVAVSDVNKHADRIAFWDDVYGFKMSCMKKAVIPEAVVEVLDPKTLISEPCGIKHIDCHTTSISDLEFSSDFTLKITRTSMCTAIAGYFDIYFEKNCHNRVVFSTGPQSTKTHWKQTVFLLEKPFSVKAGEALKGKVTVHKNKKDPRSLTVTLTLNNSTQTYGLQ
Sequence of D(1A) dopamine receptor (P21728 whole entry): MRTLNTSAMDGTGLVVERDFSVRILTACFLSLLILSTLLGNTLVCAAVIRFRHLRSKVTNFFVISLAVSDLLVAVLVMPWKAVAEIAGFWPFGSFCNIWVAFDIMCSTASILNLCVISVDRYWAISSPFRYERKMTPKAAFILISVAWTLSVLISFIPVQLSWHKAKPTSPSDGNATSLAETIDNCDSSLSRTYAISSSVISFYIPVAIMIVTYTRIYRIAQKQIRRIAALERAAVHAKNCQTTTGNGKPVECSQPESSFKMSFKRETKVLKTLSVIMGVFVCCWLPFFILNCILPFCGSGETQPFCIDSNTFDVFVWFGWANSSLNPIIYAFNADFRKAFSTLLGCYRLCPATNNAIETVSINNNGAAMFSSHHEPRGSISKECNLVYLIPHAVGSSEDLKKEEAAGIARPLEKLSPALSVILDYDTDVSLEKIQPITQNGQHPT

At D(1A) dopamine receptor, `CC(=O)c1cc(-c2ccccc2OCC2CC2)c2ncccn12` gave a % of control of 90%.
As to `CC[C@@H]1[C@H](F)C(=O)N[C@@H]1COc1nccc2cc(C(N)=O)c(OC)cc12` [ZIMLOVISERTIB], the % of inhibition in test [1] (at 0.01 µM) was -10.8%; in test [1] (at 0.04 µM) it was 0.7%; in test [1] (at 0.2 µM) it was 12.7%; in test [1] (at 1 µM) it was 37.8%; in test [1] (at 5 µM) it was 78.5%.
In the case of `CN(C)CCOc1ccc(-c2nc(-c3ccncc3)c(-c3ccc4c(c3)CC/C4=N\O)[nH]2)cc1`, in test [2], the % of control came to 17%.
Turning to `Cc1cc(CN)cc(C)c1-c1ncn(C)c1-c1cncn1C`, the % activity in test [3] (at 1 µM) was above 90%; in test [3] (at 10 µM), above 80%.
Take `Cc1cc(C)cc([C@@H]2c3cc(C)ccc3NC(=O)CN2C(=O)c2ccc(Br)s2)c1`: the % of activity in test [4] (at 1 µM) came to 102%; in test [4] (at 10 µM), 103%.
